The results in this text go back to patent US12673052B2, “Combinations for the treatment of cancer” (Exelixis, Inc., priority 2020, dated 2026).

A short description of series [1]: Single-dose plasma PK, IV and oral (PEG 400:EtOH:RO water). Format: in vivo, rats. Here is the method: (§1) Plasma PK of Compound 1 was characterized in rats and beagle dogs. Toxicokinetic (TK) evaluations of oral Compound 1 were evaluated in repeat-dose studies in rats and dogs. Plasma protein binding was determined in mouse, rat, dog, monkey, and human plasma in vitro. Biotransformation and metabolite profiling of Compound 1 were investigated in vitro using mouse, rat, dog, monkey, and human liver microsomal fractions and hepatocytes and in vivo in rats and dogs. P-glycoprotein (P-gp) and breast cancer resistance protein (BCRP) transporter interaction studies, in vitro experiments evaluating cytochrome P450 (CYP) induction and inhibition by Compound 1, and CYP and glucuronosyltransferase (UGT) substrate specificity studies of Compound 1 were also performed.
The PK and TK of Compound 1 were assessed in rats and dogs after intravenous (IV; only single dose PK) and oral (PO) administration of Compound 1 in formulations prepared in polyethylene glycol 400 (PEG 400): ethanol (EtOH): reverse osmosis water (RO Water) (45:5:50 v/v/v).
Median time to maximum plasma concentration (Tmax) occurred at approximately 2-3 hours in rats and dogs.
(§2) The mean plasma t1/2, z values were approximately 9 hours in rats and 4 hours in dogs. Interspecies scaling based on body weight to predict PK parameters in humans could not be performed because dogs (larger species) cleared Compound 1 faster than rats (smaller species). Therefore, the human PK was projected based on one species (rat). […] This apparent clearance value (CL/F) was used to predict steady-state exposure (AUC and average plasma concentration [Cavg]) in humans for the proposed first-in-human (FIH) starting dose for Study Compound 1-001.

Series [2] can be described thus: In vitro plasma protein binding. The settings on record: 0.2 and 1 μM. Format: in vitro ADME. The protocol:
as §1
Compound 1 (10 μM) was 97.2 and 97.5% protein bound in monkey and human plasma, respectively.

The nature of series [3]: Hepatocyte stability assay. It counts as in vitro ADME, dog. The settings on record: hepatocytes. The protocol:
as §2
In the liver microsomal stability assay, CLint was 0.601 mL/min/g liver in mouse, 0.563 mL/min/g liver in rat, 0.315 mL/min/g liver in dog, 0.734 mL/min/g liver in monkey, and 0.639 mL/min/g liver in human. In the hepatocyte stability assay, Compound 1 CLint was 0.373 mL/min/g liver in mouse, 0.285 mL/min/g liver in rat, 1.08 mL/min/g liver in dog, 0.533 mL/min/g liver in monkey, and 0.317 mL/min/g liver in human.

A further series relates to CYP1A2. Kind of series: CYP/UGT substrate specificity (recombinant Supersomes, chemical inhibitors in human liver microsomes). Format: in vitro ADME. The protocol:
as §1
On the technique in general: Microsomes from liver hold many membrane-bound enzymes, among them those of drug oxidation.

The next series has as its system CYP2B6. Described as above. Format: in vitro ADME. Here is the method:
as §1

In another series the test system is CYP2C19. The description is as above. It counts as in vitro ADME. The protocol: as §1
The next series deals with CYP2C8. The description is as above. It counts as in vitro ADME. The protocol: as §1
Another series has as its system CYP2C9. The series is described as above. Format: in vitro ADME. The protocol:
as §1

A further series relates to CYP3A4. The description is as above. It counts as in vitro ADME. Here is the method: as §1
The target in the next series is T1, UGT1A1 (Homo sapiens, UniProt P22309).
T1 construct: purchased; host or cells: recombinant Supersomes; human liver microsomes
T1 sequence (P22309 26-533): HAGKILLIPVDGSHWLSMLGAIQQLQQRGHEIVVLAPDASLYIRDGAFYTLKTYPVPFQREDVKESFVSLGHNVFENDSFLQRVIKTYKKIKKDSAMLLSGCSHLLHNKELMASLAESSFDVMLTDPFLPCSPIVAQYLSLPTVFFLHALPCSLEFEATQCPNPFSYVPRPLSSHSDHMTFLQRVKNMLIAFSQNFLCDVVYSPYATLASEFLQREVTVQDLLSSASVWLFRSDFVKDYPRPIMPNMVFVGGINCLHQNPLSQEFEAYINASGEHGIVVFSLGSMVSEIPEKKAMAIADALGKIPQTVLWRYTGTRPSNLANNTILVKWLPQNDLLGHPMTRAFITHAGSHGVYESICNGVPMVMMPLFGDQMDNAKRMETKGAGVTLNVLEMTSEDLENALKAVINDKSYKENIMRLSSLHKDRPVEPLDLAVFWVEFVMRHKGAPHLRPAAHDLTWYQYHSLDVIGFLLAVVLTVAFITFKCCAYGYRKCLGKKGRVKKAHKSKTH
Described as above. Format: in vitro ADME. Here is the method: as §1

The target in a further series is T2, UGT1A4 (Homo sapiens, UniProt P22310).
T2 construct: purchased; host or cells: recombinant Supersomes; human liver microsomes
T2 sequence (P22310 29-534): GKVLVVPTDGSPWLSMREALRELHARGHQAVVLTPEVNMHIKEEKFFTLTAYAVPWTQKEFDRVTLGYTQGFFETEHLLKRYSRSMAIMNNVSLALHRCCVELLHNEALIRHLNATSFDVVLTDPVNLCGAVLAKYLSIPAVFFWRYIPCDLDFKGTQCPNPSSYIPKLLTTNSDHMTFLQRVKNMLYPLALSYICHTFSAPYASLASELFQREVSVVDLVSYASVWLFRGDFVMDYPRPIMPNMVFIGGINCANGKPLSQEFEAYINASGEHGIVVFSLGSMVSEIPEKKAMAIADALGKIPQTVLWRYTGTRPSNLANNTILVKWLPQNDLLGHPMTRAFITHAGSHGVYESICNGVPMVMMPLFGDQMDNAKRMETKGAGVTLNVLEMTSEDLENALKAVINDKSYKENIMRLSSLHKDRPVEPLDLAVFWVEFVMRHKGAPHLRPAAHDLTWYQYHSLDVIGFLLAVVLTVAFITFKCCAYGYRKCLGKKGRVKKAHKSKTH
Described as above. It counts as in vitro ADME. Here is the method:
as §1

The next series deals with T3, UGT1A9 (Homo sapiens, UniProt O60656).
T3 construct: purchased; host or cells: recombinant Supersomes; human liver microsomes
T3 sequence (O60656 26-530): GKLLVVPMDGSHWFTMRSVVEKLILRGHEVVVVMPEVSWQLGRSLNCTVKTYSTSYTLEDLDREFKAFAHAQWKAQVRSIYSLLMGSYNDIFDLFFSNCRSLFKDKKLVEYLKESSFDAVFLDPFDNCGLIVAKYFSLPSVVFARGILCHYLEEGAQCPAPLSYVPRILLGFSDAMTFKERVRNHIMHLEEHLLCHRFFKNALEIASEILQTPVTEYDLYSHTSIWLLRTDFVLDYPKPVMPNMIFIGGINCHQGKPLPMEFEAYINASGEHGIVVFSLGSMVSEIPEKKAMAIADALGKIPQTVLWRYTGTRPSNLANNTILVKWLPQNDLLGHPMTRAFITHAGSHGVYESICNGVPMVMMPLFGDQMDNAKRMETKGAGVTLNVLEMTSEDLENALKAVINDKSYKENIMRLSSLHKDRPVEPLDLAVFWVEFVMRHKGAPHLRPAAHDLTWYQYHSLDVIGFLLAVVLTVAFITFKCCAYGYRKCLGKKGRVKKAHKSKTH
The series is described as above. Format: in vitro ADME. The protocol:
as §1

In another series the target is T4, UGT2B7 (Homo sapiens, UniProt P16662).
T4 construct: purchased; host or cells: recombinant Supersomes; human liver microsomes
T4 sequence (P16662 24-529): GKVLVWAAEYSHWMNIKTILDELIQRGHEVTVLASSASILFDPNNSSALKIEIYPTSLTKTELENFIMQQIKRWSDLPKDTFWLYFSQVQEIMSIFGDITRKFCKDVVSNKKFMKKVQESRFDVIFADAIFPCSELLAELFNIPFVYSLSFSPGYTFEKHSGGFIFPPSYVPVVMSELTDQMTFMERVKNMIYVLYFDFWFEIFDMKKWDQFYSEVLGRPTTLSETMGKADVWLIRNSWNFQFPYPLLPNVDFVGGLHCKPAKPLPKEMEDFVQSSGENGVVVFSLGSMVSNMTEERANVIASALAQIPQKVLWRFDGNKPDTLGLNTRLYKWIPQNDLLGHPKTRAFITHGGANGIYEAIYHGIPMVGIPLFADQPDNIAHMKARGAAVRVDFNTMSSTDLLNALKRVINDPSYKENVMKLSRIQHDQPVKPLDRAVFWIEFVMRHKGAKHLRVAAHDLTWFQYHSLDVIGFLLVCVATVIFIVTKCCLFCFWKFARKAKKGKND
The series is described as above. It counts as in vitro ADME. The protocol:
as §1

The nature of series [4]: GLP safety pharmacology: neurobehavioral and respiratory. It counts as in vivo, rats. Particulars: single oral doses as high as 60 mg/kg; within 24 hours postdose. The protocol:
The nonclinical toxicity of Compound 1 was characterized in dose range-finding 7-day and definitive 28-day repeat-dose studies in rats and dogs, and in in vitro bacterial and mammalian genotoxicity bioassays. Compound 1 was also evaluated in definitive neurobehavioral, respiratory and cardiovascular safety pharmacology studies.

Another series addresses MET (Homo sapiens, UniProt P08581). The experiment in a line: RTK autophosphorylation ELISA, PC-3 cells stimulated with HGF. It counts as cell-based. Also on record: cell lines (PC-3, HUVEC, and A-172) stimulated with ligands to their respective receptors to induce autophosphorylation (MET, VEGFR2, and AXL); endogenous in cells; host or cells: PC-3. The settings on record: MET (PC-3), ligand HGF; read-out: Cellular IC50. Here is the method:
(§3) The activity of Compound 1 was evaluated in cell-based assays that assessed the mechanistic effects of the compound in tumor and normal cells. Consistent with the biochemical data, Compound 1 is a potent inhibitor of cellular RTKs as assessed by analysis of receptor autophosphorylation as measured by enzyme-linked immunosorbent assay. Assays were performed using cell lines (PC-3, HUVEC, and A-172) stimulated with ligands to their respective receptors to induce autophosphorylation (MET, VEGFR2, and AXL) or a cell line (293A) transfected with an expression vector encoding the receptor of interest (MER). Inhibition of endogenous phosphorylated MET by Compound 1 in Hs 746T gastric carcinoma cells was also investigated due to the presence of the skip-splice mutation of exon 14 in the MET gene. This MET exon 14 alteration leads to increased MET stability and oncogenic activation, including constitutive MET phosphorylation. Also this mutation is known to occur in 3% of lung adenocarcinoma patients and to be sensitive to MET-targeted therapies (Frampton et al 2015).
In general terms: An ELISA detects its analyte on a solid surface through an enzyme-linked reagent.

For the next series, the target named is VEGFR2 (Homo sapiens, UniProt P35968). Kind of series: RTK autophosphorylation ELISA, HUVEC stimulated with VEGF165. More on the design: cell lines (PC-3, HUVEC, and A-172) stimulated with ligands to their respective receptors to induce autophosphorylation (MET, VEGFR2, and AXL); endogenous in cells; host or cells: HUVEC. The settings on record: VEGFR2, ligand VEGF165; read-out: Cellular IC50. It counts as cell-based. The protocol:
as §3

Read-outs that look alike come from different tables or passages of the source.

VEGFR2, sequence (P35968 20-1356): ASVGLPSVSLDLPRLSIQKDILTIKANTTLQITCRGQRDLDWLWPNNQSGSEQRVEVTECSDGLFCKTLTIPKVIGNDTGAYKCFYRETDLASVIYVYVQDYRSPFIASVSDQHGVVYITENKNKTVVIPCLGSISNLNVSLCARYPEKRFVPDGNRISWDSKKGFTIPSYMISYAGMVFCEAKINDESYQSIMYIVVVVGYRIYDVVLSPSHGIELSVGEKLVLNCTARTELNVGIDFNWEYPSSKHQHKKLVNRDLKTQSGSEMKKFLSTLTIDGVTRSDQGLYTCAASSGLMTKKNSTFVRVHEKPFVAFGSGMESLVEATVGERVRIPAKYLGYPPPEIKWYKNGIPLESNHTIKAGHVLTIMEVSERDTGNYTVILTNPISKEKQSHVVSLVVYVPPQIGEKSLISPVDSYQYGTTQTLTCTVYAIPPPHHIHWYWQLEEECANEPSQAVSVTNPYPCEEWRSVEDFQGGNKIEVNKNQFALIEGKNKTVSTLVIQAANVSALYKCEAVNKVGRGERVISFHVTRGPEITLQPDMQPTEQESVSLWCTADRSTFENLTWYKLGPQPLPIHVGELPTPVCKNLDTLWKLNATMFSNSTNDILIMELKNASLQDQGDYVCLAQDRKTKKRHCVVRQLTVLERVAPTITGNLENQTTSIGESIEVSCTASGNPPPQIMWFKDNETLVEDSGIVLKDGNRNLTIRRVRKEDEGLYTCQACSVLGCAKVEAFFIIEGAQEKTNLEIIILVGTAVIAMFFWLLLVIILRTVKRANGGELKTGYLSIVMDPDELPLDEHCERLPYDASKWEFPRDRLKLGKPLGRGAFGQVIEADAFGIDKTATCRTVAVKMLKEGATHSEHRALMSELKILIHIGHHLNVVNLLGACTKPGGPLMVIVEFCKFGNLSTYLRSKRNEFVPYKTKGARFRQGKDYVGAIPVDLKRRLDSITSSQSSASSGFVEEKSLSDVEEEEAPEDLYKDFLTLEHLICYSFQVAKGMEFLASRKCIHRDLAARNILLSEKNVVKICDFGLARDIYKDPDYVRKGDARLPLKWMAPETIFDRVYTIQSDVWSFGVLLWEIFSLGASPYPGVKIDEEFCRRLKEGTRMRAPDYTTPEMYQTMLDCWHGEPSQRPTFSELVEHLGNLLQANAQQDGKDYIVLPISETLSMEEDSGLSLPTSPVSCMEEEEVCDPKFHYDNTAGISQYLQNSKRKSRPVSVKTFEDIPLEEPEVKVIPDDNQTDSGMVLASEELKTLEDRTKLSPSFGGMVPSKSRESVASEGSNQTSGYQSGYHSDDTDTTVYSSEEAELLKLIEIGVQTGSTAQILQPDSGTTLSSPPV
MET, sequence (P08581 25-1390): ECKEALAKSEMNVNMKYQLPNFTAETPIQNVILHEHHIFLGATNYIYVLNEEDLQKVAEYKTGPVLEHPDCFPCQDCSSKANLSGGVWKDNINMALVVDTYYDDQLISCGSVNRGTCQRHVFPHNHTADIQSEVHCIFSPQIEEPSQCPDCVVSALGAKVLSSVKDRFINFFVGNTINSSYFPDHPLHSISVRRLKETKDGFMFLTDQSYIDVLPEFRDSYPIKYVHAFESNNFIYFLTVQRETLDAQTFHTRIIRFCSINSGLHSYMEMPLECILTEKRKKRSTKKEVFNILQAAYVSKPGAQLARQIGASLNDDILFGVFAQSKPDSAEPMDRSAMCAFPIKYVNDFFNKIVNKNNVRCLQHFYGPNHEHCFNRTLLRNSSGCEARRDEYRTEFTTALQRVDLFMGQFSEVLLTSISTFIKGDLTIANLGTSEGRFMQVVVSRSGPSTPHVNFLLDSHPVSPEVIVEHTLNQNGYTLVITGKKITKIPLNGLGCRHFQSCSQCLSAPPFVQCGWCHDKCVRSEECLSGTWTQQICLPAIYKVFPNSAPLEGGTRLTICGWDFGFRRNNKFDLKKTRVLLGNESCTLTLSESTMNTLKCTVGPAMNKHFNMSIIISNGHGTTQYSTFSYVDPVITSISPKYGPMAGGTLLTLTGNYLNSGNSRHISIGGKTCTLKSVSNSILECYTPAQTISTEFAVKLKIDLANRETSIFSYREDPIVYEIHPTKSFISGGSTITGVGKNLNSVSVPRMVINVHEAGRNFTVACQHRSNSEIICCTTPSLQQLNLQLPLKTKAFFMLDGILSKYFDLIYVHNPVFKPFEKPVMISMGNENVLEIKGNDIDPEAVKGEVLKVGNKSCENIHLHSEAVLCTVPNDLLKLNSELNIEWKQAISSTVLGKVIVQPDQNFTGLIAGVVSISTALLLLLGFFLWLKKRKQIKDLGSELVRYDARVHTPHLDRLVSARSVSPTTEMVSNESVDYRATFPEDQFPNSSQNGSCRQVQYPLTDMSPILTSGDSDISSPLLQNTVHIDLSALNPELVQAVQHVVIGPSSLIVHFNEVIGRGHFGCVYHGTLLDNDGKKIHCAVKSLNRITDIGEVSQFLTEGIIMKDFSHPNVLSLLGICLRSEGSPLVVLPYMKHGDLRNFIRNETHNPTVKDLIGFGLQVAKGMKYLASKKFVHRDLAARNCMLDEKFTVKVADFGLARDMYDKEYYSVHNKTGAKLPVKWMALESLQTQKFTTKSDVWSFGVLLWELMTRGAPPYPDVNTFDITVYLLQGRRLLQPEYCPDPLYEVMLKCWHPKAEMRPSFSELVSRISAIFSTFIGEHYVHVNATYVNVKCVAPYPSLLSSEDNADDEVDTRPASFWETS

`CNC(=O)c1cc2c(Oc3ccc(NC(=O)C4(C(=O)Nc5ccc(F)cc5)CC4)cc3)ccnc2cc1OC` [Compound 1, 1-N′-(4-Fluorophenvl)-1-N-[4-[7-methoxy-6-(methylcarbamovl)quinolin-4-yl]oxyphenyl]cyclopropane-1,1-dicarboxamide]: in series [1] (rat, plasma, po, 0.09-0.27 mg/kg, read-out: Oral absolute bioavailability), the bioavailability fell in the range of 62 to 77%. Also, the half-life was 270 to 318 min in series [1] (rat, plasma, after oral administration, read-out: terminal phase half-life (t1/2, z)) and approximately 540 min in series [1] (rat, plasma, single-dose IV, read-out: mean plasma t1/2, z (converted)). For the same compound, the Tmax in series [1] (rat, plasma, single oral dose, read-out: Median time to maximum plasma concentration (Tmax)) was in the range of 2 to 3 h. Further, the clearance in series [1] (rat, plasma, single-dose IV 0.09-0.27 mg/kg, read-out: mean plasma clearance (CL) (converted)) is 0.39 mL/min/kg. In series [1] (rat, plasma, single-dose IV, read-out: mean volume of distribution at steady-state (Vss)), the Vd is 0.167 L/kg. In [1] (single oral doses 0.09-0.27 mg/kg), the “increase of exposure (Cmax and AUC0-inf) with dose” value is recorded as “approximately dose proportionally”. The fraction unbound in [2] (dog), in series [2] (mouse) and in series [2] (rat) was less than 0.01 each time. Besides, the CLint in [3] is given as 1.08 mL/min/g liver. The substrate of enzyme entry in the series on CYP1A2 is reported as “not to be a substrate”; in the series on CYP2B6, “not to be a substrate”; with CYP2C19, “not to be a substrate”; in the series with CYP2C9, “weaker substrate”; in the series on CYP3A4, “sensitive substrate”; on UGT1A1 it was “not to be a substrate”. For the same compound, the substrate of enzyme entry at UGT1A9 and on UGT2B7 was “not to be a substrate” each time. Also, in the series with CYP2C8, the “role in the metabolism of Compound 1” value is “only a minor role”. For the same compound, the “role in Compound 1 metabolism” value at UGT1A4 is on record as “may play a minor role”. Further, in series [4], the “neurobehavioral and respiratory system effects” value is recorded as “no adverse neurobehavioral effects or toxicologically significant respiratory system effects”. Besides, the IC50 stood at 15 nM at MET and 1.5 nM on VEGFR2.

For orientation: bioavailability means dose-corrected exposure relative to a reference, in per cent. Broadly, the fraction unbound is the share of the substance not bound to proteins or other matrix. Higher therefore signals weak binding. As a reminder, the IC50 is the concentration that inhibits the measured activity by half.
